The record followed here is patent US9974305B2, “Fungicidal or bactericidal composition, and method for controlling diseases” (NISSAN CHEMICAL INDUSTRIES, LTD., priority 2014, dated 2018).

Each structure is given as a SMILES string. Where two headings read alike, the source gives them in different places.

Common to all, as to assay type: in vivo
In experiment [1] the test system is cucumber gray mold fungus (Botrytis cinerea). Nature of the experiment: Preventive test against gray mold on cucumber cotyledon leaves, spray treatment, preventive value and Colby expected value (Test Examples 1-4). The settings on record: single compound; for pest or weed control at 3 ppm / pest or weed control at 1 ppm: Botrytis cinerea, 72 h; for pest or weed control at 3 ppm: read-out: Preventive value. The procedure, abridged:
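Cucumber (Sagami-hanjiro) cotyledons sprayed with water-diluted formulations of ingredient A, B or mixtures, air-dried, detached, and drop-inoculated with Botrytis cinerea conidia mixed 1:1 with PDA. After 3 days at 20 °C, lesion area gave preventive value versus untreated; Colby expected value E=X+Y−XY/100 computed for mixtures.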

In experiment [2] the test system is cucumber downy mildew (Pseudoperenospora cubensis). Nature of the experiment: Efficacy test on cucumber downy mildew, spray treatment and prevention test (Test Example 7). Conditions: single compound 250 ppm; lesion area ratio. The procedure: An agent comprising the following compound listed in Table 2 (active ingredient A) and the compound listed in Table 6 (C40: active ingredient B) as active ingredients, was prepared in accordance with the above Formulation Example. This agent was diluted with water to a predetermined concentration to obtain a test solution. Then, to seedlings of cucumber (variety: Sagami-hanjiro) at 1.5-leaf stage grown in a pot with a diameter of 7 cm, the test solution was applied by a spray gun in an amount of 10 ml per pot, for treatment. One day after the treatment, a spore suspension (2×100,000 cfu/ml) of cucumber downy mildew (Pseudoperenospora cubensis), was spray-inoculated, and the pot was placed in a moist chamber set in temperature of 20° C. and humidity more than 95% RH for 24 hours. After placing the pot in a glass greenhouse for 6 days, the ratio of the formed lesion area occupying the inoculated leaves was measured, and the preventive value was calculated in accordance with the following formula. Preventive value=[1−(treated plot lesion area ratio/untreated plot lesion area ratio)]×100
Further, from the preventive value for each agent concentration, synergy was calculated by using the Colby method (Colby S. R. 1976, Weeds 15, 20-22).

In experiment [3] the test system is wheat glume blotch (Leptosphaeria nodorum). Nature of the experiment: Efficacy test on wheat glume blotch, seed treatment (Test Example 9). Conditions: single compound. The protocol: An agent comprising the following compound listed in Table 2 (active ingredient A) and the compound listed in Table 11 (H35: active ingredient B) as active ingredients, was prepared in accordance with the above Formulation Example. This agent was diluted with water to a predetermined concentration to obtain a test solution. A predetermined amount of the test solution was put in a glass bottle of 5 ml, and 0.5 g (approximately 15 grains) of wheat seeds (variety: Haruyutaka) were added, stirred and air-dried. In each pot with a diameter of 7 cm having soil put therein, 3 grains were seeded and grown for 14 days. To seedlings of the wheat (variety: Haruyutaka) grown to a 1-leaf stage, a spore suspension (100,000 cfu/ml) of wheat glume blotch (Leptosphaeria nodorum) was spray-inoculated, and the pot was placed in a moist chamber set in temperature of 20° C. and humidity more than 95% RH for 48 hours. After placing the pot for 7 days in a glass greenhouse, the ratio of the formed lesion area occupying the inoculated leaves was measured, and the preventive value was calculated in accordance with the following formula. Preventive value=[1−(treated plot lesion area ratio/untreated plot lesion area ratio)]×100
(§1) Further, from the preventive value at each agent concentration, synergy was calculated by using the Colby method (Colby S. R. 1976, Weeds 15, 20-22).

Experiment [4] has as its system wheat powdery mildew (Blumeria graminis). Nature of the experiment: Efficacy test on wheat powdery mildew, seed treatment (Test Example 10). Conditions: wheat (Norin 61). The protocol:
An agent comprising the following compound listed in Table 2 (active ingredient A) and the compound listed in Table 11 (H35: active ingredient B) as active ingredients, was prepared in accordance with the above Formulation Example. This agent was diluted with water to a predetermined concentration to obtain a test solution. A predetermined amount of test solution was put in a glass bottle of 5 ml, and 0.5 g (approximately 15 grains) of wheat seeds (variety: Norin 61) were added, stirred and air-dried. In each pot with a diameter of 7 cm and having soil put therein, 3 grains were seeded and grown for 14 days. To the wheat seedlings grown to the 1-leaf stage, a spore suspension (100,000 cfu/ml) of wheat powdery mildew (Blumeria graminis) was spray-inoculated. After placing the pot in a glass greenhouse for 10 days, the ratio of the formed lesion area occupying the inoculated leaves was measured, and the preventive value was calculated in accordance with the following formula. Preventive value=[1−(treated plot lesion area ratio/untreated plot lesion area ratio)]×100
as §1

Experiment [5] concerns cucumber powdery mildew (Sphaerotheca cucurbitae). Nature of the experiment: Efficacy test on cucumber powdery mildew, irrigation treatment (Test Example 11). The settings on record: concentration 500 ppm, cucumber (Sagami-hanjiro). The procedure:
An agent comprising the following compound listed in Table 2 (active ingredient A) and the compound listed in Table 6 (C18: active ingredient B), was prepared in accordance with the above Formulation Example. This agent was diluted with water to a predetermined concentration to obtain a test solution. 5 ml of the test solution was irrigated by a pipette to the close-to-ground part of cucumber seedlings at the 1 leaf stage (variety: Sagami-hanjiro), grown in a styrol cup with a diameter of 10 cm, and next day, the seedlings were transplanted to the to 4 cun pots. Then, after cultivation for 7 days in a glass greenhouse, to the first true leaf of the cucumber, a spore suspension (100,000 cfu/ml) of cucumber powdery mildew (Sphaerotheca cucurbitae) was inoculated by spraying. After 10 days in a glass greenhouse, the ratio of the formed lesion area occupying the inoculated leaves was measured, and the preventive value was calculated in accordance with the following formula. Preventive value=[1−(treated plot lesion area ratio/untreated plot lesion area ratio)]×100
as §1

The mark [6] stands for this setting: processing amount 5 mg/1 g seed.
The mark [7] stands for this setting: processing amount 10 mg/1 g seed.

Consider `CC(C)O/N=C(/CNC(=O)c1ccccc1C(F)(F)F)c1ncc(Cl)cc1Cl` [Compound No. 4], for which the Preventive value amounted to 75 in experiment [1] (Test Example 1, 3 ppm spray); 70 in experiment [1] (Test Example 3, 3 ppm spray); 60 in experiment [1] (Test Example 4, 3 ppm spray); 0 in experiment [2]; 70 in experiment [3] (setting [6]); 75 in experiment [3] (setting [7]). Moreover, the Preventive value in experiment [4] (setting [6]) came out at 97; in experiment [4] (setting [7]), 99; in experiment [5], 60.
`COc1c(Cl)cnc(C(CNC(=O)c2ccccc2C(F)(F)F)=NOC(C)C)c1Cl` [Compound No. 9]: the Preventive value in experiment [1] (Test Example 1, 1 ppm spray, cucumber cotyledon, 3 days at 20° C.) came to 75; in experiment [1] (Test Example 3, 1 ppm spray), 70; in experiment [1] (Test Example 4, 1 ppm spray) it was 72; in experiment [2], 0; in experiment [3] (setting [6]) it was 75; in experiment [3] (setting [7]) it was 77. The Preventive value in experiment [4] (setting [6]) was 100; in experiment [4] (setting [7]), 100; in experiment [5], 95.
With `CC#Cc1cnc(/C(CNC(=O)c2cn(C)nc2C(F)F)=N\OC(C)C)c(Cl)c1` [Compound No. 20, (Z)—N-[2-[3-chloro-5-(1-propynyl)pyridin-2-yl]-2-(isopropoxyimino)ethyl]-3-difluoromethyl-1-methyl-1H-pyrazole-4-carboxamide], the pest or weed control at 3 ppm in experiment [1] (Test Example 1, 3 ppm spray) came to 63%; in experiment [1] (Test Example 3, 3 ppm spray), 65%; in experiment [1] (Test Example 4, 3 ppm spray), 65%. Further, the Preventive value in experiment [2] came out at 5; in experiment [3] (setting [6]), 90; in experiment [3] (setting [7]) it was 99; in experiment [4] (setting [6]) it was 100; in experiment [4] (setting [7]) it was 100; in experiment [5], 100.
`CC(C)O/N=C(/CNC(=O)c1cn(C)nc1C(F)F)c1ncc(C#CC2CC2)cc1Cl` [Compound No. 25, (Z)—N-[2-[3-chloro-5-(cyclopropylethynyl)pyridin-2-yl]-2-(isopropoxyimino)ethyl]-3-difluoromethyl-1-methyl-1H-pyrazole-4-carboxamide]: the pest or weed control at 1 ppm in experiment [1] (Test Example 2, 1 ppm spray) is 63%; in experiment [1] (Test Example 3, 1 ppm spray), 75%; in experiment [1] (Test Example 4, 1 ppm spray), 75%. Besides, the Preventive value in experiment [2] was found to be 5; in experiment [3] (setting [6]), 83; in experiment [3] (setting [7]), 95; in experiment [4] (setting [6]), 100; in experiment [4] (setting [7]), 100; in experiment [5] it was 100.
As to `CC(C)ON=C(CNC(=O)c1ccccc1C(F)(F)F)c1ncc(C(F)(F)F)cc1Cl` [compound 14], the Preventive value was 75 in experiment [1] (Test Example 1, 3 ppm spray); 75 in experiment [1] (Test Example 3, 3 ppm spray); 65 in experiment [1] (Test Example 4, 3 ppm spray); 0 in experiment [2]; 41 in experiment [3] (setting [6]); 82 in experiment [3] (setting [7]). Moreover, the results for the Preventive value in experiment [4] (setting [6]), in experiment [4] (setting [7]) and in experiment [5] were 97, 100 and 22.5, respectively.
With `CON=C(CNC(=O)c1cn(C)nc1C(F)F)c1ncc(C#CC(C)(C)C)cc1Cl` [compound 28], the Preventive value in experiment [1] (Test Example 1, 3 ppm spray) is 75; in experiment [1] (Test Example 3, 3 ppm spray), 77; in experiment [1] (Test Example 4, 3 ppm spray) it was 75; in experiment [2], 5; in experiment [3] (setting [6]), 77; in experiment [3] (setting [7]) it was 88. For the same compound, the Preventive value in experiment [4] (setting [6]) was 100; in experiment [4] (setting [7]) it was 100; in experiment [5] it was 75.
